{"source": "patent US6929790B2", "about": "“Compositions to control oral microbial oxidation-reduction (Eh) levels” (priority 1996, dated 2005)", "key": {"[1]": {"system": "mixed bacteria in salivary sediment", "test": "Eh lowering by amino acids or salivary supernatant in the salivary sediment system", "settings": "3 mM amino acid, 16.7% salivary sediment, 60 mM phosphate buffer, 37° C., up to 24 hours; for Lowest Eh reached, Group B: Group B (next lowest Eh); for Lowest Eh reached, Group A: Group A (highest Eh levels)", "from_the_text": "This model utilizes the mixed oral bacteria collected in the salivary sediment obtained from whole saliva by centrifugation. […] This model is recognized in the art as an effective proxy to study the microbial metabolic and related biochemical processes of the oral cavity.\n(§1) To collect salivary sediment and salivary supernatant for the assay, saliva stimulated by chewing paraffin wax was expectorated into test-tubes chilled in cracked ice. […] Following collection, the saliva was centrifuged at 1740×g for 15 minutes and the supernatant was subsequently removed by pipette and kept on ice until the assay was run. Next, the sediment was washed three times with ice cold distilled water to remove any residual salivary supernatant. The washed salivary sediment was chilled in crushed ice until the assay was run. Prior to incubating the samples and running the assay, the washed salivary sediment was re-suspended in distilled water to a final concentration of 50 percent (V/V).\nA control tube contained sediment and water.\n(§2) The oxidation-reduction potential (Eh) was determined in each incubation mixture using a platinum electrode and a potassium chloride salt bridge leading to a calomel reference electrode connected to a pH meter used as a millivoltmeter."}, "[2]": {"system": "soft tissues of the oral cavity", "settings": "cited from earlier work"}, "mixed oral bacteria": {"system": "mixed oral bacteria", "test": "Eh during incubation of salivary sediment and salivary supernatant with zinc chloride and/or hydrogen peroxide (Example II)", "settings": "zinc chloride 6.0 mM (0.08%), hydrogen peroxide 0.5%, 37° C., 24 hours", "procedure": "as §1, §2\nA tube was prepared containing salivary sediment and salivary supernatant only (water control)."}, "oral bacteria [3]": {"system": "oral bacteria", "test": "In vivo cysteine rinse challenge, VSC (Halimeter) and tongue Eh before and after test rinse (Examples IV-VII)", "parameters": "species or system human subjects", "procedure": "The ability of a zinc chloride rinse solution to reduce or prevent the formation of volatile sulfur compounds (VSC) in vivo following successive challenges with a cysteine rinse was studied in this Example. The rinse solution consisted of zinc chloride at 6 mM (0.08%). […] The subject rinsed his/her mouth with 5 ml of a 6 mM cysteine solution for 30 seconds to stimulate substantial VSC production by the oral bacteria. […] Before and following the rinse, a Halimeter instrument was used to measure the volatile sulfur compounds (VSC) produced. Simultaneously, a platinum electrode was placed on the posterior dorsum surface of the tongue, just anterior to the circumvallate papillae to measure the Eh. After 20 minutes, the subject rinsed his/her mouth with 5 ml of the zinc chloride solution for 30 seconds. Again, the VSC of the subject's mouth air and the Eh were measured. The subject then rinsed successively with the 6 mM cysteine solution at 40, 60, 140, 320 and 380 minutes and the VSC and Eh of the subject's oral cavity were re-measured each time (see FIG. 5) using the Halimeter and the platinum electrode.\n(§3) As before, 5 ml of the zinc/peroxide/chloride ion composition of this invention was applied as a rinse for 30 seconds.\nas §3\nThe abilities of 0.1% sodium chlorite rinse solutions, one without and one with zinc chloride at 6 mM (0.08%) were compared in this Example for their abilities to reduce or prevent the formation of VSC in vivo following successive challenges with a cysteine rinse as before. The oral rinse consisted of application of 5 ml for 30 seconds of either an 0.1% sodium chlorite solution or an 0.1% sodium chlorite solution to which zinc chloride at 0.08% had been added."}, "[4]": {"settings": "25° C.; cited from earlier work"}, "oral bacteria [5]": {"system": "oral bacteria", "test": "Zinc ion concentration versus rate of volatile sulfur compound production from cysteine (FIG. 1)", "assay_type": "cell-based", "settings": "inhibition is exponential", "from_the_text": "Inhibition is exponential and occurs maximally once the zinc ion concentration reaches about 0.2%."}}}
{"molecule": "N=C(N)NCCC[C@H](N)C(=O)O", "note": "[arginine]", "values": [{"measurement": "Lowest Eh reached, Group B", "setting": "[1]", "value": 25, "unit": "millivolts"}]}
{"molecule": "N[C@@H](CC(=O)O)C(=O)O", "note": "[aspartic]", "values": [{"measurement": "Lowest Eh reached, Group A", "setting": "[1]", "value": 80, "unit": "millivolts"}]}
{"molecule": "N[C@@H](CCC(=O)O)C(=O)O", "note": "[glutamic]", "values": [{"measurement": "Lowest Eh reached, Group B", "setting": "[1]", "value": 30, "unit": "millivolts"}]}
{"molecule": "OO", "note": "[hydrogen peroxide]", "values": [{"measurement": "Hydrogen peroxide concentration above which it can be harmful to the soft tissues of the oral cavity", "setting": "[2]", "value": "3.0 to 3.5", "unit": "%"}]}
{"molecule": "NCCCC[C@H](N)C(=O)O", "note": "[lysine]", "values": [{"measurement": "Lowest Eh reached, Group A", "setting": "[1]", "value": 95, "unit": "millivolts"}]}
{"molecule": "NCCC[C@H](N)C(=O)O", "note": "[ornithine]", "values": [{"measurement": "Lowest Eh reached, Group B", "setting": "[1]", "value": 55, "unit": "millivolts"}]}
{"molecule": "N[C@@H](Cc1ccccc1)C(=O)O", "note": "[phenylalanine]", "values": [{"measurement": "Lowest Eh reached, Group A", "setting": "[1]", "value": 100, "unit": "millivolts"}]}
{"molecule": "N[C@@H](Cc1ccc(O)cc1)C(=O)O", "note": "[tyrosine]", "values": [{"measurement": "Lowest Eh reached, Group B", "setting": "[1]", "value": 40, "unit": "millivolts"}]}
{"molecule": "[Cl-].[Cl-].[Zn+2]", "note": "[zinc chloride]", "values": [{"measurement": "Decrease in the Eh during incubation", "setting": "mixed oral bacteria", "value": "some decrease in the Eh"}, {"measurement": "Eh of the incubation mixture compared to salivary supernatant plus salivary sediment control", "setting": "mixed oral bacteria", "value": "significantly raised the Eh"}, {"measurement": "Time for which the VSC response to subsequent cysteine rinses was retarded", "setting": "oral bacteria [3]; Example IV, zinc chloride 6 mM (0.08%), 5 ml rinse for 30 seconds", "value": "about 5 hours"}, {"measurement": "VSC response to cysteine rinsing", "setting": "oral bacteria [3]; Example IV, zinc chloride 6 mM (0.08%), 5 ml rinse for 30 seconds, 6 mM cysteine challenges", "value": "reduced the ability of the oral bacteria to produce the VSC response to cysteine rinsing"}, {"measurement": "Eh during rinsing", "setting": "oral bacteria [3]; Example IV, zinc chloride 6 mM (0.08%), platinum electrode on tongue dorsum", "value": "raised to a small degree"}, {"measurement": "Solubility", "setting": "[4]", "value": "432 @ 25 °C g/100 cc"}]}
{"molecule": "[Zn+2]", "note": "[zinc ion]", "values": [{"measurement": "Zinc ion concentration at which inhibition of volatile sulfur compound production from cysteine is maximal", "setting": "oral bacteria [5]", "value": "about 0.2%"}]}
{"molecule": "sodium chlorite", "values": [{"measurement": "Inhibition of VSC production", "setting": "oral bacteria [3]; Example VII, 0.1% sodium chlorite solution, 5 ml for 30 seconds", "value": "no inhibition of VSC production"}]}
